The source of these data is patent publication US20170224679A1, “Use of CXCR2 Antagonists For The Prevention and/or Treatment of Chemotherapy Induced Peripheral Neuropathy (CIPN)” (GlaxoSmithKline Intellectual Property Development Limited, priority 2014, published 2017).

Assay type in all cases: cell-based
Experiment [1] deals with T1, CXCR2 receptor (Homo sapiens, UniProt P25025).
T1 sequence (P25025 1-360): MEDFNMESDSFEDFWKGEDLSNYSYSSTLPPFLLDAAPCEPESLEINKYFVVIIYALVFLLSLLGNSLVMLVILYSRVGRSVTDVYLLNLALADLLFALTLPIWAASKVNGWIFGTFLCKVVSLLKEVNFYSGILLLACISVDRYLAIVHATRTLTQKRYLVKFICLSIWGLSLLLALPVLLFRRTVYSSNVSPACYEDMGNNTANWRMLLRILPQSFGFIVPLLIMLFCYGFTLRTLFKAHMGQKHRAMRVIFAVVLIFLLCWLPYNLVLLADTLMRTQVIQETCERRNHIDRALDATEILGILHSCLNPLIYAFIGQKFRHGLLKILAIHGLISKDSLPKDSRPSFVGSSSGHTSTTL
In words: CXCR2 Tango assay. Also noted: fused on or other part: TEV protease cleavage site and Gal4-VP16 transcription factor fused to the receptor (Invitrogen Tango construct); no part of the key. The following applies: Tango reporter gene, 80 nM hCXCL1; read-out: pIC50 against the CXCR2 receptor (converted). An excerpt: The assay measures ligand-induced activation of the receptor CXCR2 in a stable cell line containing the recombinant human CXCR2 linked to a TEV protease site and a Gal4-VP16 transcription factor (Invitrogen). Ligand binding to the receptor results in the recruitment of arrestin proteins (tagged with protease) to the receptor and triggers the release of a tethered transcription factor. The transcription factor enters the nucleus and activates the transcription of the reporter gene. The ability of a compound to inhibit CXCR2 activation is indirectly assessed by measuring the reporter gene activity.
A vial of cryopreserved cells was removed from liquid nitrogen and rapidly thawed in a water bath at 37° C. with gentle agitation. The cell contents were collected and resuspended in Assay Medium at a density of ˜200,000 cells/ml. All test compounds were dissolved in DMSO at a concentration of 10 mM and then were serially diluted to generate a 10-point dose response curve into 384-well assay plate (Greiner 781090) using an Echo (Labcyte) concentration-response program (50 nl/well). The cell-free, un-stimulated and positive controls were loaded with 50 nl/well pure DMSO to ensure that the DMSO concentration was constant across the plate for all assays. Using Multi-drop Combi (Thermo) with standard cassette, 50 μl of Assay Medium was added to cell-free control wells in compound-containing assay plate; 50 μl of the cell suspension without hCXCL1 (a CXCR2 ligand) was added to un-stimulated control wells (10,000 cells per well); and 50 μl of the cell suspension with 80 nM hCXCL1 was added to the rest of wells of the assay plate (10,000 cells per well). The cells were incubated overnight at 37° C./5% CO2·10 μl of 6× substrate mixture (LiveBLAzer™-FRET B/G substrate (CCF4-AM) Cat #K1096 from Invitrogen, Inc.) was added to each well using Multi-drop Combi (Thermo) with small-tube cassette and the plate was incubated at room temperature for 2 h in the dark. The plate was then read on EnVision using one excitation channel (409 nm) and two emission channels (460 nm and 530 nm).
The blue/green emission ratio (460 nm/530 nm) was calculated for each well by dividing the background-subtracted Blue emission values by the background-subtracted Green emission values. The dose response curve was based on sigmoidal dose-response model. All ratio data was normalized based upon the maximum emission ratio of positive control (hCXCL1) and minimum emission ratio of negative control (DMSO) on each plate.

Experiment [2] has as its target T1, CXCR2 receptor. In words: Human whole blood assay version i) (CD11b, CXCL1 stimulated). Further details: Assay d) measures the cellular functional activity to the native expressed human CXCR2 in whole blood; endogenous in cells; host or cells: human whole blood (neutrophils). Conditions: 10 nM CXCL1, neutrophil CD11b, read-out: pIC50 against the CXCR2 receptor (converted).
Experimental: Human blood was obtained from healthy consenting adults by trained medical professionals by venipuncture in a 10 ml syringe containing 225 μI of 0.25 M EDTA and filling with 7 ml of blood (maintained at 37° C. throughout the CXCL1 stimulation).
The test compounds were dissolved in 100% DMSO to a concentration of 10 mM and diluted to 12× the assay concentration in 1.2% DMSO (final concentration DMSO of 0.1%).
Assay: 100 μI of whole blood was added to assay tubes or 96 well U-bottom clear plates containing 10 μI of 1.2% DMSO (assay concentration of 0.1%) or 10 μI of compound dissolved in 1.2% DMSO (assay concentration range of 0.1 μM to 10 μM), then incubated for 10 minutes at 37° C., followed by addition of 10 μI of 0.1% BSA in DPBS (negative controls) or 10 μI of 120 nM CXCL1 (GROα, Prepro Tech, Inc) dissolved in 0.1% BSA in DPBS (assay concentration of 10 nM which is the EC80 for CXCL1) and incubated at 37° C. for an additional 10 min with gentle agitation before being placed on ice and assay terminated by adding 250 μI of CellFix or 250 μI of 3.7% v/v paraformaldehyde (BD Biosciences). […] Before being analyzed using an LSR flow cytometer (Becton-Dickinson) or FACS Canto II, cells were stained for 10 minutes at 4° C. with 10 μI of LDS-751 (Molecular Probes), a nucleic acid stain, allowing a cytometer threshold setting to exclude red blood cells. […]

The target in experiment [3] is T1, CXCR2 receptor. In words: Human whole blood assay version ii) (CD11b, GROα stimulated). Further details: Assay d) measures the cellular functional activity to the native expressed human CXCR2 in whole blood; endogenous in cells; host or cells: human whole blood (neutrophils). The following applies: 33 nM GROα, neutrophil CD11b, read-out: pIC50 against the CXCR2 receptor (converted). As to the method:
Blood was withdrawn by venipuncture from consented adults and poured into a Sterilin tube containing an anti-coagulant Heparin (10 μL/mL of blood). All the test compounds were dissolved in DMSO to 4 mM and serial diluted across the plate, 1 in 3 to provide 10 point dose response curves. The compounds were then diluted 100 fold in -PBS [Phosphate buffered saline (without Calcium Chloride and Magnesium Chloride)] after which, 1 μL was dispensed in 96 U bottom Costar plates using an FX. This was done to reduce the final DMSO concentration to 0.25% and for compounds to be screened at 10 uM final assay concentration, after addition of blood.
10 μL of blood was transferred to the compound plate using a multi-channel pipette, gently tapped and incubated for 15 minutes, at 37° C. After 15 minutes, the stimulant GROα was diluted to 100 nM in 0.1% BSA (Albumin Bovine Serum)-PBS and 5 μL is dispensed across the whole plate for a final concentration of 33 nM. The plate was gently tapped and incubated further for 15 minutes at 37° C. […]
Samples were run on a Becton and Dickinson (BD)-Acurri C6 Flow Cytometer using a HyperCyt sampling apparatus (IntelliCyt) with a flow rate 2 μL/sec. CD11 b upregulation is monitored in neutrophils and identified using a combination of both side scatter and CD16 expression.

Experiment [4] has as its system Caco-2 cell line. In words: Colorectal cancer cell line proliferation assay, Caco-2. Conditions: Caco-2, compound alone 8.5 μM, non-significant.
Experimental: Cell proliferation assay: Cells were seeded in 96-well plates (Costar) at different cell densities: HCT116, 500 cells per well; Caco-2, 1000 cells per well. Total volume of the medium was 90 μl per well. Cells were incubated for 24 hours at 37° C. and 5% CO2 incubator.
The cell proliferation rate was measured by adding 100 μl of CellTiter-Glo™ (Promega) according to the manufacturer's instructions. After 10 minutes of incubation, the cell lysates were transferred into OptiPlate-384 well, the luminescence was recorded by BioTek Synergy™ 4 Hybrid Microplate Reader with Gen5 software. All data points were generated in five replicates. Three independent experiments were performed.
Data Analysis: pIC50 values were calculated by software GraphPad Prism 5 using sigmoidal concentration-response (variable slope). All data were presented as the mean±standard error of the mean determined from three independent experiments.

On to `CN1CCC(C)(S(=O)(=O)c2c(Cl)ccc(NC(=O)Nc3cccc(F)c3Cl)c2O)CC1` [Compound of Formula (D), 1-(4-chloro-3-((1,4-dimethylpiperidin-4-yl)sulfonyl)-2-hydroxyphenyl)-3-(2-chloro-3-fluorophenyl)urea], for which the IC50 is 0.00126 µM in experiment [1], 3.98 µM in experiment [2] and 1.58 µM in experiment [3].

As for `O=C(Nc1ccc(Cl)c(S(=O)(=O)N2CCNCC2)c1O)Nc1cccc(F)c1Cl` [Compound of Formula (A), 1-(4-chloro-2-hydroxy-3-(piperazin-1-ylsulfonyl)phenyl)-3-(2-chloro-3-fluorophenyl)urea], in experiment [4], the “decrease of basal proliferation” value came to 2.7±2.1%. For the same compound, the IC50 in experiment [1] is 0.000631 µM; in experiment [2], 2 µM.
